# Data taken from patent US20110055943A1, “NOVEL THERAPEUTIC TARGETS IN INFLAMMATORY BOWEL DISEASE” (SALIX PHARMACEUTICALS, LTD., priority 2007, published 2011).
# Assays:
# FXR = target: T1, FXR (Mus musculus, UniProt Q60641); assay: Cell-based reporter assay, transfected HCT116 cells, dual luciferase; conditions: 10 μM, 24 h
# T1 construct: expressed in transfected cells; host or cells: HCT116
# T1 sequence (Q60641 1-488): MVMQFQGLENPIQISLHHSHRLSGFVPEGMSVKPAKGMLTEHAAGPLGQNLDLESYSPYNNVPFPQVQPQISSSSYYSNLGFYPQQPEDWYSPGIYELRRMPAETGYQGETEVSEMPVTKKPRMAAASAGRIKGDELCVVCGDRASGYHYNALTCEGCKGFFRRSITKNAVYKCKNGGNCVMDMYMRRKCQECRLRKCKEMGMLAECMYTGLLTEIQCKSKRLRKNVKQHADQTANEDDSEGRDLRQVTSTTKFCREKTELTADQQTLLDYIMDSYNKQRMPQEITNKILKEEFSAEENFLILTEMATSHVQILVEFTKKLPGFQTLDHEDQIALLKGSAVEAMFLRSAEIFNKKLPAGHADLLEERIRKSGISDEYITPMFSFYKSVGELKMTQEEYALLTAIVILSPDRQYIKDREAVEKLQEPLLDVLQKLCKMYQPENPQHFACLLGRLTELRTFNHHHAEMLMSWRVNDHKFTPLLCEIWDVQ
# Procedure: (§1) A hepG2 cell line (DPX2) with stable expression of recombinant human PXR and a PXR-response element cloned in a luciferase vector was obtained from Puracyp Inc. (Carlsbad, Calif.). The construction and validation of the cell lines were reported previously (Yueh et al., 2005). The cells were seeded according to the distributor's instruction. […] The activation of PXR was determined by measuring the firefly luciferase activity 24 h later, followed by normalization of luciferase activity by protein concentrations. For cell-based reporter assay of nuclear receptors CAR, PPARα, PPARγ, and FXR, HCT116 cells were plated on 24-well plates (5×10^4 cells/well, cultured in DMEM containing 10% FBS), and transfected with the various expression vectors using Fugene transfection reagent (Roche, Indianapolis, Ind.). The mouse PPAR and CAR vectors were described in previous reports (Kliewer et al., 1992; Swales et al., 2005). The mouse FXR vector was provided by Dr Christopher J. Sinal. […] TCPOBOP (250 nM), Wy-14,643 (10 μM), rosiglitazone (10 μM), and GW4064 (25 μM) were used as positive controls respectively for mouse CAR, PPARα, PPARγ, and FXR. A standard dual luciferase assay was used and normalized to a cotransfected control reporter (Promega, Madison, Wis.). Each in vitro assay was repeated at least three times.
# PPARα = target: T2, PPARα (Mus musculus, UniProt P23204); assay: as above; conditions: 10 μM, 24 h
# T2 construct: expressed in transfected cells; host or cells: HCT116
# T2 sequence (P23204 1-468): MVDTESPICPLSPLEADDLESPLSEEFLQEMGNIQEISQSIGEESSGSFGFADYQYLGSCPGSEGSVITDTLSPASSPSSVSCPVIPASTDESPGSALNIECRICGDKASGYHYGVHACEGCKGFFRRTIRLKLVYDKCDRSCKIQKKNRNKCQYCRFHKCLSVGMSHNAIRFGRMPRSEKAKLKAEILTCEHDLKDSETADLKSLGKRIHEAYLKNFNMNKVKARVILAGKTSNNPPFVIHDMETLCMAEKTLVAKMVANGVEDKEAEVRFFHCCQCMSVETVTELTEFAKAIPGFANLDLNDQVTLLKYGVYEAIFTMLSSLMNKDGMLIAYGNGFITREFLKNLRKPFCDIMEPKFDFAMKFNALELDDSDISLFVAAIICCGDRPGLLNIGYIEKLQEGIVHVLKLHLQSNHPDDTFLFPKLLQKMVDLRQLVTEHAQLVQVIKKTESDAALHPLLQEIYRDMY
# Procedure: as §1
# CYP3A = assay: Pharmacokinetics of MDZ in hPXR mice pretreated with RIFax; conditions: hPXR mice, RIFax 10 mg/kg/day 3 days, MDZ 2.5 mg/kg oral
# Procedure: Blood samples were collected from suborbital veins using heparinized tubes at pre-dose, 5, 10, 20, 30, 60, and 90 min after administration of MDZ. Serum was separated by centrifugation at 8,000 g for 10 min. For MDZ and 1′-OH-MDZ extraction, 50 μl of serum was mixed with 150 μl of phosphate-buffered saline, 200 μl of ethyl acetate, and 200 μl of methyl t-butyl ether. The mixture was centrifuged at 3,000 rpm for 5 min at 4° C. The organic layer was then transferred to a new tube, dried with N2, and reconstituted in 100 μl of 70% aqueous methanol and 30% H2O containing 0.1% formic acid. […] Pharmacokinetic parameters for MDZ and 1′-OH-MDZ were estimated from the plasma concentration-time data by a non-compartmental approach using WinNonlin (Pharsight, Mountain View, Calif.). The area under the serum concentration-time curve (AUC0-90 min) was calculated by the trapezoidal rule. The maximum concentration in serum (Cmax) and its corresponding time (Tmax) were obtained from the original data.
compound,measurement,setting,value
"COC1/C=C/OC2(C)Oc3c(C)c(O)c4c(O)c(c5c(nc6cc(C)ccn65)c4c3C2=O)NC(=O)/C(C)=C\C=C\C(C)C(O)C(C)C(O)C(C)C(OC(C)=O)C1C (stereo not drawn) [RIFax, 4-Deoxy-4′-methylpyrido[1′,2′-1,2]imidazo[5,4-c]rifamycin SV]",change in luciferase activity in the presence of FXR,FXR,no significant change
same,change in luciferase activity in the presence of PPARα,PPARα,no significant change
same,Tmax of 1′-OH-MDZ in RIFax pretreated mice vs control group,CYP3A,significantly shorter
